According to US20110039906A1, “ANTIBACTERIAL COMBINATION THERAPY” (priority 2007, published 2011):
Values after ≈ are worked out from the molar mass of the structure shown. Where two headings read alike, the source gives them in different places.

Columns and labels:
[1] = tested on: MRSA; conditions: literature evidence (Taylor et al., 1987); cited from earlier work
[2] = tested on: Mu50exJapan (VISA); test: MIC by broth microdilution (experiment B); type: cell-based; conditions: Staphylococcus aureus, combination 1:1, value = mg/L total drug
Experimental: (§1) Minimum inhibitory concentrations (MICs) of a range of clinical and control bacterial organisms were measured according to BSAC (British Society for Antimicrobial Chemotherapy) guidelines (Andrews 2001), for single agents and combinations of agents, described briefly as follows. MICs were measured by agar dilution (Experiment A) and by broth microdilution (experiment B).
(§2) Stock solutions were prepared at concentrations of 1000 mg/L and 100 mg/L. The appropriate amounts of each stock solution were added to separate Petri dishes give a range of final concentrations (after the addition of 20 mL molten agar): from 0.12 to 32 mg/L. In experiment A, a 1:1 ratio of each agent was added to the appropriate Petri dish so that a 2 mg/L plate contained 2 mg/L of each agent. Volumes (20 mL) of cooled molten IST agar (oxoid) was added to each Petri dish and mixed by swirling. After drying, the plates were stored at 4° C. and protected from light. Plates were used on the day of preparation.
(§3) The test organisms were grown overnight in 5 mL IST broth. […] For the broth microdilution, each well of a microtitre plate was inoculated with diluted overnight culture to give a final inoculum of 5×10^5 cfu/mL. […]
(§4) The MIC is the minimum amount of an antibiotic at which there is no visible growth of bacteria. Tiny single colonies or faint hazes were not counted as growth.

[3] = tested on: S. epidermidis 1228; test: MIC by broth microdilution (experiment B); type: cell-based; conditions: Staphylococcus epidermidis, combination 1:1, value = mg/L total drug
Experimental: as §1, §2, §3, §4

[4] = tested on: VISA 3900 UK (VISA); test: MIC by broth microdilution (experiment B); type: cell-based; conditions: Staphylococcus aureus, combination 1:1, value = mg/L total drug
Experimental: as §1, §2, §3, §4

[5] = tested on: USA/VISA 5836 (VISA); test: MIC by broth microdilution (experiment B); type: cell-based; conditions: Staphylococcus aureus, combination 1:1, value = mg/L total drug
Experimental: as §1, §2, §3, §4

[6] = tested on: USA/VISA) 5827 (VISA; test: MIC by broth microdilution (experiment B); type: cell-based; conditions: Staphylococcus aureus, combination 1:1, value = mg/L total drug
Experimental: as §1, §2, §3, §4

[7] = tested on: 25 different MRSA isolates and 5 VRE isolates; test: Pooled MIC testing (MIC50, MIC90, range); type: cell-based; conditions: 25 MRSA isolates and 5 VRE isolates
Excerpt: The MIC50 is the minimum inhibitory concentration required to inhibit the growth of 50% of the strains tested, and the MIC90, the concentration required to inhibit the growth of 90% of the strains tested.

MIC [3] [µg/mL] | MIC [4] [µg/mL] | MIC [5] [µg/mL] | SMILES | antibacterial activity against MRSA [1] | other results
 |  |  | CCN(CC)C(=S)S [DDTC, diethyldithiocarbamate] | some antibacterial activity | 
2 | 8 | 8 | Clc1ccc(COC(Cn2ccnc2)c2ccc(Cl)cc2Cl)cc1 (stereo not drawn) [Econazole, 1-[2-[(4-Chlorphenyl)methoxy]-2-(2,4-dichlorophenyl)ethyl]-1H-imidazole] |  | MIC [2]: 8 µg/mL; MIC [6]: 4 µg/mL
 |  |  | CCN(CC)C(=S)SSC(=S)N(CC)CC [Disulfiram (ethanol), disulfiram] | some antibacterial activity | 
2 | 2 | 8 | Clc1ccc(COC(Cn2ccnc2)c2ccc(Cl)cc2Cl)c(Cl)c1 (stereo not drawn) [Miconazole, 1-[2-(2,4-Dichlorophenyl)-2-[(2,4-dichlorophenyl)methoxy]ethyl]-1H-imidazole] |  | Range of MICs [7]: 0.5 to 8 mg/L; MIC50 ([7]; concentration inhibiting growth of 50% of strains): 2 µg/mL (≈ 4.81 µM); MIC90 ([7]; concentration inhibiting growth of 90% of strains): 2 µg/mL (≈ 4.81 µM); MIC ([7]; read-out: highest MIC): 8 µg/mL (≈ 19.2 µM); MIC ([7]; read-out: lowest MIC): 0.5 µg/mL (≈ 1.2 µM)
